The record followed here is patent publication US12714674B2, “JAK inhibitors having a specific particle size distribution” (Elanco US Inc., priority 2020, dated 2026).

Data set [1] can be described thus: Particle size distribution of micronized (jet-milled) material, laser diffraction. It counts as physicochemical. As for the experimental part: Micronization was begun with a short “setup” run of approximately 300 grams was performed using a feed rate of 9.6 kg/hr. Venturi/mill pressures were 10 psi.
Particle size distribution method of 2-(3-(4-(7H-pyrrolo[2,3-d]pyrimidin-4-yl)-1H-pyrazol-1-yl)-1-(cyclopropylsulfonyl)azetidin-3-yl)acetonitrile.
Method: 150 to 175 mg 2-(3-(4-(7H-pyrrolo[2,3-d]pyrimidin-4-yl)-1H-pyrazol-1-yl)-1-(cyclopropylsulfonyl)azetidin-3-yl)acetonitrile sample are dispersed with 1 ml Tween20/water mixture (10/90 v/v %) to a paste in a beaker. The entire paste is then transferred to the measuring cuvette (beaker is rinsed out with water for complete sample transfer) and dispersed in 300 ml water. To homogenize the suspension in the measuring cuvette, the pump speed is set to 600 rpm. Before measurement the sample is stirred for 30 seconds. The optical concentration should be in the range of approximately 15 to 20% but the value depends strongly on the particle size distribution in the sample. If the 15 to 20% range is not reached either more sample paste must be added or the sample has to be diluted with water.
Equipment: a Helos laser diffractometer from Sympatec is used. Suspensions are measured using a Quixel cell. Dry measurement is done using the Rodos unit. Evaluation is done using the Paqxos software.

In data set [2] the test system is pruritus and skin lesions associated with allergic dermatitis in dogs. The data set can be described thus: Four-arm, blinded, randomized, placebo-controlled study: control of pruritus and skin lesions associated with allergic dermatitis in dogs. It counts as in vivo, dog. As for the experimental part:
This study evaluated 2-(3-(4-(7H-pyrrolo[2,3-d]pyrimidin-4-yl)-1H-pyrazol-1-yl)-1-(cyclopropylsulfonyl)azetidin-3-yl)acetonitrile for control of pruritus and skin lesions associated with allergic dermatitis in dogs.
Oral tablets were prepared containing Form II 2-(3-(4-(7H-pyrrolo[2,3-d]pyrimidin-4-yl)-1H-pyrazol-1-yl)-1-(cyclopropylsulfonyl)azetidin-3-yl)acetonitrile, as follows. […] The tablet blends were pressed giving tablet cores containing 2.4 mg, 3.6 mg, 5.4 mg, and 16 mg of crystal Form II 2-(3-(4-(7H-pyrrolo[2,3-d]pyrimidin-4-yl)-1H-pyrazol-1-yl)-1-(cyclopropylsulfonyl)azetidin-3-yl)acetonitrile, as well as a placebo core. The tablet cores were coated with a mixture containing water and Opadry 20A150011 Red, thereby giving the final oral tablets for the study.
A four-arm, blinded, randomized, placebo-controlled study was conducted to assess the efficacy of daily administration of 2-(3-(4-(7H-pyrrolo[2,3-d]pyrimidin-4-yl)-1H-pyrazol-1-yl)-1-(cyclopropylsulfonyl)azetidin-3-yl)acetonitrile for control of pruritus and skin lesions associated with allergic dermatitis in dogs. Subjects were randomized to one of the following treatment arms: API-containing Tablets, 0.25-0.40 mg/kg Body Weight; API-containing Tablets, 0.40-0.60 mg/kg Body Weight; API-containing Tablets, 0.60-0.80 mg/kg Body Weight; and Placebo Tablets, 0.0 mg/kg Body Weight.
Dogs enrolled in the study received once daily treatment for approximately 28 days. Baseline data (clinical history, concomitant therapies, body weight, physical examinations and assessments of pruritus and atopic dermatitis) were collected for each dog at enrollment (Day 0). Additional health assessments, physical examinations, body weight measurements, assessments of pruritus and atopic dermatitis, and collection of blood samples for hematology, serum chemistry and pharmacokinetic (PK) analysis occurred consistent with standard testing protocols.
The primary effectiveness variable was treatment success. A treatment success was defined as a 2 unit or more reduction from baseline on the 10-unit owner-assessed pruritus Visual-Analog Scale (VAS) in at least 70% of the first 7 treatment days (i.e., in at least 5 of the first 7 treatment days). Dogs withdrawn from the study within the first 7 days of treatment due to a perceived lack of effectiveness were considered treatment failures.
Random effects were fit for site and site treatment with a variance component covariance structure and a compound symmetry covariance structure was fit for individual dogs.

[3] abbreviates: Example 50 setup run, feed rate 9.6 kg/hr, venturi/mill pressures 10 psi.
Where [4] appears, read: PSD method of Example 51, Helos laser diffractometer, suspension in water/Tween20.

Take `N#CCC1(n2cc(-c3ncnc4[nH]ccc34)cn2)CN(S(=O)(=O)C2CC2)C1` [sample “I”, 2-(3-(4-(7H-pyrrolo[2,3-d]pyrimidin-4-yl)-1H-pyrazol-1-yl)-1-(cyclopropylsulfonyl)azetidin-3-yl)acetonitrile]: in data set [1] (setting [3]), the dv10 amounted to 4 µm, the dv50 turned out to be 20 µm and the dv90 was found to be 53 µm. In data set [1] (setting [4]), the dv10 came out at 4 µm, the dv50 came out at 20 µm and the dv90 was determined as 51 µm.

With `N#CCC1(n2cc(-c3ncnc4[nH]ccc34)cn2)CN(S(=O)(=O)C2CC2)C1` [2-(3-(4-(7H-pyrrolo[2,3-d]pyrimidin-4-yl)-1H-pyrazol-1-yl)-1-(cyclopropylsulfonyl)azetidin-3-yl)acetonitrile], in data set [2] (0.6-0.8 mg/kg once daily), the “primary endpoint for treatment success” value is listed as “achieved the primary endpoint for treatment success”. The “Treatment Success LSMean (response rate)” value in data set [2] (0.60-0.80 mg/kg once daily oral tablets containing Form II, success = 2 unit or more reduction on owner pruritus VAS in at least 5 of first 7 treatment days, generalized linear mixed model) is reported as 0.7188. Further, in data set [2] (0.6-0.8 mg/kg once daily, day 28), the “improvement in lesion scores” value is recorded as “significant improvement in lesion scores at day 28”. For the same compound, in data set [2] (0.6-0.8 mg/kg once daily, from first dose), the improvement in pruritus result is listed as “significant improvements in pruritus from first dose”.
